# Like-named read-outs stand apart in the source and are kept apart here.
# What was measured:
# [1] = reference value used for the calculation; cited from earlier work
# [2] = competition titrations with EDTA to determine iron-binding affinity (pFeIII); assay type: physicochemical; conditions: competition titration of Fe-cahuitamycin complex with EDTA, Hepes buffer pH 7.4, UV-vis; three individual titrations
# Method: Determination of pFe^III for cahuitamycins was carried out as reported by Abergel et al. J. Am. […] Briefly, purified Fe-cahuitamycins, prepared as described above, was dissolved in Hepes buffer (10 mM Hepes, 0.1 M KCl, pH 7.4) and five different concentration ranges of ETDA were added from EDTA stock solutions also prepared in HEPES buffer. Each reaction consisted of a total volume of 0.25 mL, a final concentration of 0.1 mM Fe-cahuitamycins and a range of 5-fold-8000-fold EDTA (relative to Fe-cahuitamycins) in Hepes buffer. The reaction was allowed to equilibrate at room temperature for at least 24 h, and UV-visible spectra were subsequently recorded. The composite spectra contain contributions from both Fe-EDTA and Fe-cahuitamycins. The ε of both species as a function of λ, were determined in Hepes buffer and used to deconvolute the spectra. The contribution of Fe-cahuitamycins was subtracted from the composite spectra using the 435 nm absorption band and the ε of both Fe-cahuitamycins and Fe-EDTA were used to quantify the proportion of each species in solution. Concentrations of apo-EDTA and apo-cahuitamycins were calculated by subtracting [Fe-EDTA] (or [Fe-cahuitamycins]) from total initial EDTA (or Fe cahuitamycins). The log [EDTA]/[cahuitamycins] was plotted against log [Fe-EDTA]/[Fe-cahuitamycins] and the data were fit to the following equation, which has been derived by Abergel et al., J. Am.
# [3] = system: A. baumannii biofilm formation; test: static biofilm assay, crystal violet staining and optical density; assay type: cell-based, Acinetobacter baumannii ATCC 17978; conditions: for IC50: Acinetobacter baumannii, read-out: IC50, inhibition of biofilm formation; for effect on biofilm formation: apo form
# Description: In an effort to discover new antibiotics, a marine microbial-derived NPE library was screened to identify biofilm inhibitors in A. baumannii. Natural products accounts for the majority of currently marketed drugs,^10 and the marine environment represents a potential new source of unique chemical entities.^11 A crystal violet based high throughput assay was used to query against a library of 9,831 marine microbial derived NPEs in order to identify the extracts inhibiting biofilm formation as primary screen. The active extracts obtained in primary high-throughput screening were further prioritized by setting the inhibition threshold to 50% followed by a dose response assay, yielding 31 active NPEs.
# Primarily, the static biofilm assay using 1-3 was conducted using crystal violet staining followed by optical density measurements (FIG. 3). […] However, loss of inhibition of biofilm over time can be directly attributed to the metal-complexed cahuitamycins.
# A static biofilm assay was developed from a previously reported method.^10 The biofilm assay measures the adhesion of bacteria to the surface of polystyrene 384 well microtiter plates. Adherent cells are detected by staining with Crystal Violet and subsequent washing to remove nonadherent planktonic cells. Inhibitors of biofilm formation prevent the bacteria from adhering to the surface of the microtiter plate and reduce the amount of Crystal Violet retained after washing. Assay quantification was performed by OD600 absorbance measurement of the Crystal Violet stained biofilm. The assay was optimized for plate surface treatment, time, temperature, media, media concentration, Crystal Violet concentration, wash method, inhibitor sensitivity, and culture inoculum preparation.
# The A. baumannii test strain (ATCC 17978) was maintained as a frozen stock at −80° C. in 20% glycerol. On the morning of the assay, 5 ml of Mueller Hinton II cation adjusted media (Becton Dickinson cat. 212322) was inoculated and grown at 37° C., 180 rpm shaking for 4-6 h. The culture was then diluted 1:50 and incubated an additional 2 h. The resulting cells were washed four times by centrifugation and resuspension of the pellet in media was performed to remove any metabolites or cell signaling factors. The assay inoculum was prepared by diluting the cells to 0.008 OD600 in 10% Mueller Hinton II cation adjusted media (diluted in 18 ohm deionized water). The assay plates (Corning cat. 3680, 384 well non-treated polystyrene) were prepared by dispensing 20 μl of 10% Mueller Hinton II cation adjusted media into columns 1-22 using a Multidrop Combi dispenser (ThermoFisher). The natural product extract samples were added as 0.2 μl of 15 mg/ml stocks in DMSO using a Biomek FX high density pintool (Beckman Coulter). Column 1 and 2 contained DMSO without natural product extracts and served as the negative control. The positive control was added to column 23 and 24 as 20 μl of 40 μM Baicalein (Sigma-Aldrich cat. 11712). The bacterial cells were added to the entire plate in 20 μl of the prepared inoculum using a Multidrop Combi dispenser (ThermoFisher). The resulting assay contained 40 μl of 10% Mueller Hinton II cation adjusted media with 0.004 OD600 bacterial cells, 0.5% DMSO, and 75 μg/ml natural product extract. The assay plates were incubated at 30° C. for 20 h, stationary, in a humidified incubator. The biofilm was stained by adding 10 μl of filtered 1% Crystal Violet and incubating for 30 minutes at room temperature. Excess Crystal Violet and nonadherent planktonic cells were removed by washing three times with 150 μl of PBS using an ELX405 plate washer (Biotek). The wash program used a low velocity dispense rate and an aspiration height of 3.8 mm; about 10 μl of PBS remained in the well after washing. The Crystal Violet stained biofilm was solubilized by the addition of 50 μl of 100% ethanol and allowed to develop overnight. Quantification was performed by measuring the OD600 absorbance using a Pherastar plate reader (BMG). […]
# [4] = system: A. baumannii growth; test: inhibition of A. baumannii growth; assay type: cell-based, Acinetobacter baumannii; conditions: for effect on bacterial growth: A. baumannii, apo form
# [5] = system: A. baumanii biofilm; test: confocal microscope imaging of biofilm on glass plate (SYTO 9 / propidium iodide); assay type: cell-based, Acinetobacter baumannii; conditions: glass plate treated with 240 nM
# Method: (§1) Next, the specific stage of inhibition during biofilm formation was probed as well as the extent of inhibition through a flow cell assay. […] In addition, confocal microscope imaging analysis of the A. baumanii biofilm was conducted. In this assay, the biofilm was developed on a glass plate and left untreated as a control or treated with only 240 nM of 1 and 3. After treatment with STYO® 9 stain and propidium iodide (PI) the biofilm structure was observed.
# [6] = system: A. baumannii ATCC 17978 biofilm; test: flow cell biofilm assay; assay type: cell-based, Acinetobacter baumannii ATCC 17978; conditions: 7.5 μg/ml in flow media
# Method: as §1
# Biofilms were formed by A. baumannii ATCC 17978 in flow chambers at room temperature. Images were taken at 1 h, 6 h and 24 h (by using a 60× lens) after inoculation. A flow cell biofilm was achieved by using a flow cell chamber (ACCFL0001, Life Science Incorporated, Greensboro, N.C.). Briefly, overnight cultures of A. baumannii ATCC 17978 grown in MHII broth at 37° C. were diluted 100 fold with fresh MHII broth. 1 ml of dilution was injected into a flow cell chamber and allowed to settle one hour for attaching of bacteria followed by initiation media flow. Flow media was 10% MHII broth (control), or 10% MHII broth with 7.5 μg/ml of desferoxamine, or MHII broth with 7.5 μg/ml of cahuitamycins A. The flow rate was 4 ml/hr. Micrographs of the biofilm were acquired at 1 h, 6 h and 24 h by using an Olympus IX70 microscope with 60× lens
# [7] = static biofilm assay, A. baumannii
# [8] = compound tested in iron-complexed form
structure (smiles),measurement,setting,value
O=C(O)CN(CCN(CC(=O)O)CC(=O)O)CC(=O)O [EDTA],pFe^III (known stability constants for EDTA),[1],23.42
"Cc1cccc(O)c1C1=N[C@H](C(=O)N[C@@H](CO)C(=O)N[C@H](CCCN(O)C=O)C(=O)N2NCCC[C@@H]2C(=O)NCCC(=O)O)CO1 [compound 3, Cahuitamycin C]",pFe^III,[2],17.52±0.12
same,IC50,[3]; [7],14.5 µM
same,effect on bacterial growth,[4],limited effect
same,biofilm thickness compared with the control,[5],much thinner biofilm
same,total biomass compared with the control,[5],significantly less total biomass
same,total biomass of biofilm,[5],0.10 μm^3
"O=CN(O)CCC[C@@H](NC(=O)[C@H](CO)NC(=O)[C@H](CO)NC(=O)c1ccccc1O)C(=O)N1NCCC[C@@H]1C(=O)NCCC(=O)O [compound 2, Cahuitamycin B]",pFe^III,[2],20.42±0.09
same,effect on biofilm formation,[3]; [7],no effects
same,effect on bacterial growth,[4],no effects
"CC(=O)N(O)CCCCCNC(=O)CCC(=O)N(O)CCCCCNC(=O)CCC(=O)N(O)CCCCCN [desferoxamine, reference compound]",biofilm state in flow cell after 6 h of supplementation,[6],formation of a robust biofilm
same,biofilm state in flow cell after 24 h of supplementation,[6],biofilm became thicker
"O=CN(O)CCC[C@@H](NC(=O)[C@H](CO)NC(=O)[C@@H]1COC(c2ccccc2O)=N1)C(=O)N1NCCC[C@@H]1C(=O)NCCC(=O)O [compound 1, Cahuitamycin A]",pFe^III,[2],18.34±0.16
same,"impact on biofilm formation, iron-complexed form",[3]; [8],almost no impact
same,effect on biofilm formation,[3]; [7],able to inhibit
same,"impact on growth, iron-complexed form",[4]; [8],almost no impact
same,biofilm state in flow cell after 6 h of supplementation,[6],only a few micro colonies
same,biofilm state in flow cell after 24 h of supplementation,[6],larger micro colonies and initiation of biofilm formation
same,biofilm thickness compared with the control,[5],much thinner biofilm
same,total biomass compared with the control,[5],significantly less total biomass
same,total biomass of biofilm,[5],0.18 μm^3
"Cc1ccc(O)c(C2=N[C@H](C(=O)N[C@@H](CO)C(=O)N[C@H](CCCN(O)C=O)C(=O)N3NCCC[C@@H]3C(=O)NCCC(=O)O)CO2)c1 [compound 4, Cahuitamycin D]",IC50,[3]; [7],8.4 µM
same,potency as biofilm inhibitor compared to 3 (cahuitamycin C),[3]; static biofilm assay,almost twice the potency
same,potency as biofilm inhibitor compared to 3 (cahuitamycin C),"[3]; static biofilm assay, listed as cahuitamycin analog D",twice as active
"O=CN(O)CCC[C@@H](NC(=O)[C@H](CO)NC(=O)[C@H](CO)NC(=O)c1ccccc1O)C(=O)N[C@H](CCCNO)C(=O)NCCC(=O)O [compound 5, Cahuitamycin E]",IC50,[3],10.5 µM
